Values quoted from earlier work in patent US20090019042A1, “Method Of Screening Compound Regulating The Translation Of Specific mRNA” (Takeda Pharmaceutical Company Limited, priority 2004, published 2009).

Columns and labels:
xpt-pbux mRNA = settings: guanine recognised by xpt-pbux mRNA
LysC mRNA = settings: L-lysine recognised by LysC mRNA

| SMILES | Kd (xpt-pbux mRNA) [nM] | Kd (LysC mRNA) [nM] |
| --- | --- | --- |
| Nc1nc2nc[nH]c2c(=O)[nH]1 [guanine] | < 5 | – |
| NCCCC[C@H](N)C(=O)O [L-lysine] | – | 1000 |
